Measured values as given in US20250144032A1, “POLY(BETA-AMINO ESTER) MICROPARTICLES FOR MICRONUTRIENT FORTIFICATION” (Massachusetts Institute of Technology, priority 2021, published 2025).

Assay: Boiling stability of micronutrients in water at 100 °C (simulated cooking)
Assay type: physicochemical
Protocol: To evaluate the effects on VA stabilization, VA (10% wt) was encapsulated with MPs fabricated from PAE_C, PAE_D, or PAE_E. The resulting MPs were tested in boiling water for 2 hours.
The boiling stability of micronutrients in PAE MP was studied in water at 100° C. At each time point, samples were lyophilized to obtain the boiled product.
High-performance liquid chromatography (HPLC), inductively coupled plasma-optical emission spectrometer (ICP-OES), and colorimetric assay kits were used for micronutrient quantification.

With `CCCCCCCCCCCCCCCC(=O)OC/C=C(C)/C=C/C=C(C)/C=C/C1=C(C)CCCC1(C)C` [VA, retinyl palmitate] the “VA recovered after boiling for 0.5 h” value was “less than 20%”.
